Reference: the NIST ThermoML archive (doi:10.1016/j.fluid.2016.09.021)
Numbers after ± are expanded uncertainties.

Conditions: Liquid, Vibrating tube method

CCCCCCC [heptane]
mass density [kg/m3]
Conditions | 293 K | 313 K | 333 K | 353 K | 373 K | 393 K | 413 K | 433 K | 448 K | 468 K
2100 kPa | 687.2 ± 2 | 671.9 ± 2 | 654.8 ± 2 | 636.1 ± 2 | 616.9 ± 2 | 596.5 ± 2 | 574.1 ± 2 | 550.1 ± 2 | 531.1 ± 2 | 501.1 ± 2
3000 kPa | 688.1 ± 2 | 672.9 ± 2 | 656 ± 2 | 637.6 ± 2 | 618.6 ± 2 | 598.7 ± 2 | 577 ± 2 | 553.9 ± 2 | 535.6 ± 2 | 507.8 ± 2
4000 kPa | 688.9 ± 2 | 673.9 ± 2 | 657.7 ± 2 | 639.1 ± 2 | 620.3 ± 2 | 600.8 ± 2 | 579.6 ± 2 | 557.5 ± 2 | 539.8 ± 2 | 513.4 ± 2
5000 kPa | 689.8 ± 2 | 674.8 ± 2 | 658.4 ± 2 | 640.4 ± 2 | 622 ± 2 | 602.8 ± 2 | 582.1 ± 2 | 560.7 ± 2 | 543.6 ± 2 | 518.6 ± 2
10000 kPa | 694 ± 2 | 679.4 ± 2 | 663.9 ± 2 | 647.1 ± 2 | 629.9 ± 2 | 612.2 ± 2 | 593.6 ± 2 | 574.6 ± 2 | 560 ± 2 | 539.1 ± 2
20000 kPa | 701.8 ± 2 | 688 ± 2.1 | 673.8 ± 2.1 | 658.5 ± 2.1 | 643.2 ± 2.1 | 627.8 ± 2.1 | 611.9 ± 2.1 | 595.4 ± 2.1 | 583 ± 2.1 | 566.5 ± 2.1
30000 kPa | 708.7 ± 2.1 | 695.4 ± 2.1 | 682.3 ± 2.1 | 668 ± 2.1 | 654.1 ± 2.1 | 640.2 ± 2.1 | 626 ± 2.1 | 611.5 ± 2.1 | 600.3 ± 2.1 | 586.2 ± 2.1
40000 kPa | 714.8 ± 2.1 | 702.2 ± 2.1 | 689.5 ± 2.1 | 676.7 ± 2.1 | 663.6 ± 2.1 | 650.8 ± 2.1 | 637.6 ± 2.1 | 624.3 ± 2.1 | 614.4 ± 2.2 | 601.3 ± 2.2
49900 kPa | 720.8 ± 2.1 | 708.5 ± 2.1 | 696.5 ± 2.1 | 684.5 ± 2.1 | 672 ± 2.2 | 659.9 ± 2.2 | 647.8 ± 2.2 | 635.2 ± 2.2 | 626.2 ± 2.2 | 614.2 ± 2.2
59900 kPa | 726.4 ± 2.2 | 714.3 ± 2.2 | 703.1 ± 2.2 | 691.3 ± 2.2 | 679.6 ± 2.2 | 668.3 ± 2.2 | 656.9 ± 2.2 | 644.7 ± 2.2 | 636.6 ± 2.2 | 625.3 ± 2.3
69900 kPa | 731.6 ± 2.2 | 720 ± 2.2 | 708.9 ± 2.2 | 697.9 ± 2.2 | 686.7 ± 2.2 | 675.9 ± 2.2 | 664.7 ± 2.3 | 653.5 ± 2.3 | 646.2 ± 2.3 | 635.2 ± 2.3
79900 kPa | 736.8 ± 2.2 | 725.2 ± 2.2 | 714.5 ± 2.2 | 703.8 ± 2.3 | 693.3 ± 2.3 | 682.9 ± 2.3 | 672.4 ± 2.3 | 661.6 ± 2.3 | 654.4 ± 2.3 | 644.1 ± 2.4
89900 kPa | 741.5 ± 2.3 | 730.3 ± 2.3 | 720 ± 2.3 | 709.7 ± 2.3 | 699.4 ± 2.3 | 689.5 ± 2.3 | 679.3 ± 2.4 | 669 ± 2.4 | 661.8 ± 2.4 | 652.3 ± 2.4
99900 kPa | 746.1 ± 2.3 | 735.1 ± 2.3 | 725.2 ± 2.3 | 715 ± 2.3 | 705.2 ± 2.4 | 695.7 ± 2.4 | 685.8 ± 2.4 | 676 ± 2.4 | 669.2 ± 2.4 | 659.9 ± 2.5
109900 kPa | 750.6 ± 2.3 | 739.9 ± 2.3 | 729.8 ± 2.4 | 720.3 ± 2.4 | 710.7 ± 2.4 | 701.4 ± 2.4 | 692.2 ± 2.5 | 682.3 ± 2.5 | 675.8 ± 2.5 | 667.2 ± 2.5
119900 kPa | 754.9 ± 2.4 | 744.3 ± 2.4 | 734.7 ± 2.4 | 725.3 ± 2.4 | 716 ± 2.5 | 706.8 ± 2.5 | 698 ± 2.5 | 688.5 ± 2.5 | 682.3 ± 2.5 | 673.9 ± 2.6
129900 kPa | 759.2 ± 2.4 | 748.7 ± 2.4 | 739.3 ± 2.5 | 730.1 ± 2.5 | 720.9 ± 2.5 | 712.1 ± 2.5 | 703.6 ± 2.6 | 694.3 ± 2.6 | 688.4 ± 2.6 | 679.9 ± 2.6
134900 kPa | 761.2 ± 2.4 | 751 ± 2.4 | 741.4 ± 2.5 | 732.4 ± 2.5 | 723.3 ± 2.5 | 714.7 ± 2.6 | 706.2 ± 2.6 | 697.2 ± 2.6 | 691.4 ± 2.6 | 682.8 ± 2.7
137400 kPa | 762.2 ± 2.4 | 751.9 ± 2.5 | 742.6 ± 2.5 | 733.5 ± 2.5 | 724.5 ± 2.5 | 715.8 ± 2.6 | 707.4 ± 2.6 | 698.6 ± 2.6 | 692.6 ± 2.6 | 684.3 ± 2.7

Cc1ccccc1 [toluene]
mass density [kg/m3]
Conditions | 293 K | 313 K | 333 K | 353 K | 373 K | 393 K | 413 K | 433 K | 448 K | 468 K
2000 kPa | 871.2 ± 2 | 852.2 ± 2 | 833 ± 2 | 814.2 ± 2.1 | 794.2 ± 2.1 | 774.2 ± 2.1 | 753.1 ± 2.2 | 731.6 ± 2.2 | 714.3 ± 2.3 | 689.9 ± 2.3
3000 kPa | 871.9 ± 2 | 853 ± 2 | 834 ± 2 | 815.2 ± 2 | 795.4 ± 2.1 | 775.7 ± 2.1 | 754.9 ± 2.1 | 733.6 ± 2.2 | 716.6 ± 2.2 | 692.7 ± 2.3
4000 kPa | 872.6 ± 2 | 853.9 ± 2 | 834.9 ± 2 | 816.3 ± 2.1 | 796.6 ± 2.1 | 777.2 ± 2.1 | 756.5 ± 2.1 | 735.6 ± 2.2 | 718.9 ± 2.2 | 695.5 ± 2.3
5000 kPa | 873.2 ± 2 | 854.6 ± 2 | 835.8 ± 2 | 817.3 ± 2 | 797.8 ± 2.1 | 778.5 ± 2 | 758.3 ± 2.1 | 737.5 ± 2.1 | 721.1 ± 2.2 | 698.2 ± 2.3
10000 kPa | 876.8 ± 2 | 858.6 ± 2 | 840.2 ± 2 | 822.4 ± 2 | 803.8 ± 2.1 | 785.1 ± 2.1 | 766.1 ± 2.1 | 746.9 ± 2.1 | 731.4 ± 2.1 | 710.6 ± 2.2
20000 kPa | 883.4 ± 2 | 866.1 ± 2 | 848.2 ± 2 | 831.5 ± 2 | 814 ± 2.1 | 797 ± 2.1 | 779.5 ± 2.1 | 762.1 ± 2.1 | 748.5 ± 2.1 | 730.4 ± 2.1
30000 kPa | 889.3 ± 2 | 872.9 ± 2 | 855.9 ± 2 | 840.1 ± 2 | 823.5 ± 2.1 | 807.5 ± 2.1 | 791.3 ± 2.1 | 774.9 ± 2.1 | 762.6 ± 2.1 | 745.9 ± 2.1
40000 kPa | 895.1 ± 2 | 879 ± 2 | 863 ± 2 | 847.6 ± 2 | 832 ± 2.1 | 816.9 ± 2.1 | 801.6 ± 2.1 | 786.5 ± 2.1 | 774.7 ± 2.1 | 759.3 ± 2.1
50000 kPa | 900.5 ± 2 | 884.8 ± 2 | 869.2 ± 2 | 854.7 ± 2 | 840.2 ± 2.1 | 825.2 ± 2.1 | 810.8 ± 2.1 | 796.7 ± 2.1 | 785.5 ± 2.1 | 771.1 ± 2.1
60000 kPa | 905.8 ± 2 | 890.4 ± 2 | 875.6 ± 2 | 861.5 ± 2.1 | 847.2 ± 2.1 | 833.3 ± 2.1 | 819.2 ± 2.1 | 805.8 ± 2.1 | 795.1 ± 2.1 | 781.7 ± 2.1
70000 kPa | 910.8 ± 2 | 896 ± 2 | 881.5 ± 2 | 867.7 ± 2.1 | 853.9 ± 2.1 | 840.6 ± 2.1 | 827.3 ± 2.1 | 814.3 ± 2.1 | 804.1 ± 2.1 | 790.9 ± 2.1
80000 kPa | 915.8 ± 2 | 901.2 ± 2 | 887.1 ± 2.1 | 873.8 ± 2.1 | 860.3 ± 2.1 | 847.3 ± 2.1 | 834.6 ± 2.1 | 822 ± 2.1 | 812.3 ± 2.1 | 799.8 ± 2.1
90000 kPa | 920.4 ± 2 | 906.3 ± 2 | 892.3 ± 2.1 | 879.6 ± 2.1 | 866.6 ± 2.1 | 854 ± 2.1 | 841.3 ± 2.1 | 829.2 ± 2.1 | 820 ± 2.1 | 808 ± 2.2
100000 kPa | 924.8 ± 2 | 911 ± 2 | 897.6 ± 2.1 | 884.9 ± 2.1 | 872.2 ± 2.1 | 860.1 ± 2.1 | 848 ± 2.1 | 836 ± 2.1 | 827.2 ± 2.1 | 815.5 ± 2.2
110000 kPa | 929.4 ± 2 | 915.7 ± 2 | 902.5 ± 2.1 | 890.3 ± 2.1 | 877.8 ± 2.1 | 866 ± 2.1 | 854.2 ± 2.1 | 842.6 ± 2.1 | 833.9 ± 2.2 | 822.8 ± 2.2
120000 kPa | 933.6 ± 2 | 920.3 ± 2 | 907.3 ± 2.1 | 895.4 ± 2.1 | 883.3 ± 2.1 | 871.6 ± 2.1 | 860.2 ± 2.1 | 848.7 ± 2.1 | 840.2 ± 2.2 | 829.5 ± 2.2
130000 kPa | 938 ± 2 | 924.8 ± 2 | 912 ± 2.1 | 900.3 ± 2.1 | 888.5 ± 2.1 | 877.2 ± 2.1 | 865.8 ± 2.1 | 854.9 ± 2.2 | 846.6 ± 2.2 | 836 ± 2.2
135000 kPa | 939.9 ± 2 | 927 ± 2 | 914.2 ± 2.1 | 902.6 ± 2.1 | 890.8 ± 2.1 | 879.8 ± 2.1 | 868.5 ± 2.1 | 857.7 ± 2.2 | 849.6 ± 2.2 | 838.9 ± 2.2
137500 kPa | 940.9 ± 2 | 927.9 ± 2 | 915.4 ± 2.1 | 903.7 ± 2.1 | 892 ± 2.1 | 881 ± 2.1 | 869.7 ± 2.1 | 859 ± 2.2 | 850.9 ± 2.2 | 840.4 ± 2.2
